This series in a line: gradient 5% acetonitrile 3 min, to 50% in 2 min, to 85% in 15 min, held 3 min, 100 µL/min. The following applies: column: Zorbax Extend-C18 2.1 x 50 mm; eluents: water / acetonitrile, 0.1% formic acid. In a few lines:
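Retention times come from adduct peaks that were picked computationally and then checked by hand. The standards, pure and pooled in mixtures of ~100 molecules, were run on a Zorbax Extend-C18 column (2.1 × 50 mm, 1.8 μm) at 100 μL/min with water and acetonitrile, each with 0.1% formic acid. Detection was by quadrupole time-of-flight mass spectrometry in positive and negative ionization mode, with a dead volume of 40 μL and a dwell volume of 900 μL.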
Consider `COc1ccc(-c2cc(C(=O)NC3CCCC3)nn2C2CCS(=O)(=O)C2)cc1` (centres undefined), for which the RP-LC retention time is 849 s. As for `O=C(Cn1ccc2ccc(N3CCOCC3)nc21)NCC1CCCCC1`, the RP-LC retention time was determined as 924 s. Take `CC1(C)CC(=O)C2=C(C1)Nc1ccccc1N(CC(=O)N1CCOCC1)C2c1cccs1` (centres undefined): the RP-LC retention time worked out at 721 s. `O=C(CCn1nnc2cc(-c3noc(COc4ccccc4)n3)ccc21)N1CCCCCC1` displayed an RP-LC retention time of 1000 s.

`COc1ccc2[nH]cc(CCN3CC(C(=O)Nc4ccc(Br)cc4)CC3=O)c2c1` (centres undefined) returned an RP-LC retention time of 844 s. The molecule `Cc1nnc(-c2cc(S(=O)(=O)NC3CCCCCCC3)c(C)n2C)o1` registered an RP-LC retention time of 897 s. For the molecule `Cc1noc(C)c1C(=O)N1CCCC1Cc1noc(-c2cnccn2)n1` (centres undefined), the RP-LC retention time turned out to be 661 s. With `O=C(Cn1cccn1)N1CCN(c2cccc(Cl)c2Cl)CC1`, the RP-LC retention time turned out to be 782 s. As for `COc1ccc(-c2noc(-c3ccc(N4CCN(c5ncccn5)CC4)nn3)n2)cc1`, the RP-LC retention time came to 923 s. On to `CC(C)OCCCNC(=O)C1CCCN(S(=O)(=O)c2ccc3c(ccn3C)c2)C1` (centres undefined), for which the RP-LC retention time came out at 720 s. The molecule `COc1ccc(-c2nc3sc(C(N)=O)c(C)n3c2NC(C)(C)C)cc1` yielded an RP-LC retention time of 705 s. For `O=C(NC1CCCC1)C1CCCN(S(=O)(=O)c2c[nH]c(C(=O)N3CCCCCC3)c2)C1` (centres undefined), the RP-LC retention time was determined as 784 s. In the case of `Cc1ccc(C(=O)Nc2nccnc2C(=O)NC2CCCCC2)cc1` it was 1100 s; in that of `Cc1cc(NC(=O)c2c[nH]c3ncccc23)ccc1F`, 739 s; in that of `CCOc1ccc(NC(=O)C2CC(=O)N(c3ccc4c(c3)CCN4C(C)=O)C2)cc1` (centres undefined), 750 s. In turn, `CCOC(=O)c1c(C)[nH]c(C)c1S(=O)(=O)N1CCC(C(=O)NCc2ccccc2)CC1` displayed an RP-LC retention time of 754 s. In turn, `CCOC(=O)C(C)Sc1nnc(NC(=O)Cc2ccc(OC)cc2)s1` (centres undefined) came in with an RP-LC retention time of 806 s. The molecule `CSc1ccc(Cl)c(C(=O)N2CC(=O)Nc3ccccc32)c1` came in with an RP-LC retention time of 796 s. `CCN(CC)CCCNc1ncnc2c1cnn2-c1cccc(Cl)c1` came in with an RP-LC retention time of 648 s. Turning to `O=C(NCc1cc(F)cc(F)c1)c1cn2c(n1)CCCC2`, the RP-LC retention time turned out to be 599 s. Take `COCC(=O)Nc1ccc2nc(N3CCN(CC(=O)N4CCCCC4)CC3)cc(C(=O)O)c2c1`: the RP-LC retention time amounted to 558 s. For the molecule `CCCNC(=O)c1ccc2c(=O)n(Cc3ccccc3)c(N(CC)CC)nc2c1`, the RP-LC retention time came out at 997 s. Take `CSc1nc2ccc(NS(=O)(=O)c3ccc(Br)s3)cc2s1`: the RP-LC retention time turned out to be 994 s. As for `Cc1ccc(NC(=O)c2cn(C)nc2S(=O)(=O)N2CCSCC2)cc1`, the RP-LC retention time turned out to be 928 s.

Take `CCCCNC(=O)CN1c2ccc(F)cc2-c2ccccc2S1(=O)=O`: the RP-LC retention time turned out to be 884 s. In the case of `O=S(=O)(c1cccnc1)N1CCN(Cc2nnnn2-c2ccc(F)c(F)c2)CC1` it was 733 s; in that of `COc1ccc(-c2noc(N3CCC(Cc4ccccc4)CC3)n2)cc1OC`, 1240 s. Take `CCN1CCN(c2cc(C(=O)O)c3cc(NS(=O)(=O)c4cccc(F)c4)ccc3n2)CC1`: the RP-LC retention time was 600 s. Molecule `COc1ncc(C(=O)NCc2ccc(Cl)cc2)cn1` had an RP-LC retention time of 751 s. Molecule `COc1ccccc1-c1nnc(-c2ccc(OC)c(S(=O)(=O)N3CCOCC3)c2)o1` showed an RP-LC retention time of 781 s.

`O=C(c1cn(CC(O)c2ccccc2)nn1)N1CCN(c2ccccn2)CC1` (centres undefined): the RP-LC retention time turned out to be 544 s. As for `COc1ccccc1-c1nnc(SCC(=O)N2CCc3ccccc32)o1`, the RP-LC retention time was 839 s. As to `Cc1c(C(=O)N2CCN(C(=O)COc3ccccc3)CC2)[nH]c2ccccc12`, the RP-LC retention time was 819 s.

With `O=c1n(Cc2cccc(F)c2)nc2ccc(S(=O)(=O)N3CCc4ccccc4C3)cn12`, the RP-LC retention time came to 987 s. For `Clc1ccccc1-c1nc(-c2ccnc(N3CCOCC3)c2)no1`, the RP-LC retention time is 994 s. Molecule `CC(C)C(=O)NCC(c1ccccc1Cl)c1c[nH]c2ccccc12` (centres undefined) yielded an RP-LC retention time of 929 s. In turn, `COc1ccc(-n2nc3c(N4CCCC(C(=O)NC5CCCC5)C4)nnc(C)c3c2C)cc1` (centres undefined) returned an RP-LC retention time of 696 s. In the case of `Cc1[nH]nc(-c2c(C)sc(C)c2S(=O)(=O)NCc2ccc(Br)cc2)c1C` it was 1130 s. In the case of `O=C(c1csc(-c2ccc(N3CCSCC3)nc2)n1)N1CCC2(CC1)OCCO2` it was 822 s; in that of `CC(C)(C)NC(=O)N1CC(N(Cc2ccncc2)S(C)(=O)=O)C1`, 573 s. Regarding `O=c1n(Cc2cccc(C(F)(F)F)c2)nc2c(S(=O)(=O)N3CCCCCC3)cccn12`, the RP-LC retention time is 1020 s. In turn, `COc1ccc(N(Cc2nnc3n2CCCCC3)C(=O)Nc2cccc(OC)c2)cc1` yielded an RP-LC retention time of 714 s. In the case of `CC(C)N1C(=O)c2cccnc2Sc2cc(NC(=O)c3ccncc3)ccc21`, the RP-LC retention time stood at 662 s. In the case of `CCOC(=O)N1CCN(c2ncc(S(=O)(=O)c3ccc(Cl)cc3)c(N)n2)CC1` it was 910 s; in that of `Cc1cc(C)n2c(Nc3cccc(C(F)(F)F)c3)c(-c3ccc(F)cc3)nc2n1`, 829 s. The molecule `CCc1ccc(S(=O)(=O)N2CC(F)(F)C[C@H]2CN2CCc3ccccc3C2)cc1` had an RP-LC retention time of 808 s. Molecule `CCOC(=O)C1CCN([C@H]2CS(=O)(=O)C[C@@H]2S(=O)(=O)c2ccc(C)cc2)CC1` showed an RP-LC retention time of 875 s. In the case of `CNC(=O)C1CCCN(c2nc3ncn(CC(=O)Nc4ccccc4C)c(=O)c3s2)C1` (centres undefined) it was 628 s. For the molecule `COc1ccc(NC(=O)N2CCN(CCn3c(C(F)(F)F)nc4cccnc43)CC2)cc1`, the RP-LC retention time was 624 s. With `CCOC(=O)c1c(C)[nH]c(CCC(=O)NCC2CCCO2)c1C` (centres undefined), the RP-LC retention time came out at 686 s. With `COc1ccc(-c2c(NC(=O)c3ccco3)oc3c(C)cccc3c2=O)cc1OC`, the RP-LC retention time worked out at 747 s. In the case of `COc1ccc(NC(=O)C2CCN(c3cnc4nc(C)c(C)nc4c3)CC2)cc1F` it was 718 s. In the case of `COCCCn1c(=O)c2ccccc2n(Cc2nc(-c3cccc(Br)c3)no2)c1=O` it was 1190 s; in that of `COc1ccc(C(=O)Nc2nc(-c3ccc4c(c3)NC(=O)C(C)O4)c(C)s2)cc1OC` (centres undefined), 867 s; in that of `COc1ccc(F)cc1S(=O)(=O)N1C[C@@H]2C[C@H]1C[C@@H]2NC(=O)c1cccs1`, 834 s. Take `CC(C)N1C(=O)C(C)(C(=O)Nc2ccc(F)c(F)c2)Oc2cccnc21` (centres undefined): the RP-LC retention time amounted to 1030 s. `CCn1cc(C2=CCN(C(=O)Cc3ccc(F)cc3)CC2)c2cccnc21` had an RP-LC retention time of 876 s. In the case of `CCn1cc(-c2ccc(OC)cc2)cc1C(=O)N(C)C` it was 842 s. Regarding `CCCCn1cnc2c(-c3ccccc3)cn(CC(=O)NCCC(C)C)c2c1=O`, the RP-LC retention time is 1050 s. Consider `COc1cccc(CNC(=O)C2CCN(CC(=O)Nc3ccc(C)cc3)CC2)c1`, for which the RP-LC retention time came to 582 s. `Cc1ccn2cc(C(=O)NCc3ccccc3C)nc2c1` showed an RP-LC retention time of 708 s.

Take `Cc1ccccc1N1CCN(Cc2nc(-c3ccc(N4CCCC(C)C4)nc3)no2)CC1` (centres undefined): the RP-LC retention time was 1160 s. Regarding `COc1ccc(C2NC(c3ccc(OC)c(OC)c3)C(C)C(=O)C2C)cc1OC` (centres undefined), the RP-LC retention time amounted to 755 s. Turning to `COCCCNC(=O)N1CCCN(c2nc3cc(F)ccc3n3cccc23)CC1`, the RP-LC retention time was determined as 613 s.

For the molecule `CCC(C)NC(=O)C1CCCN(c2nccn3nc(-c4ccc(C)cc4C)cc23)C1` (centres undefined), the RP-LC retention time was found to be 908 s. In the case of `O=C(Cc1ccccc1)Nc1nnc(CCSCCc2nnc(NC(=O)Cc3ccccc3)s2)s1` it was 933 s; in that of `COCCCNC(=O)CCc1cn(-c2ccccc2)nc1-c1ccc2c(c1)OCO2`, 841 s.

In turn, `CCCn1cc(CCNS(=O)(=O)c2c(C)c(C)cc(C)c2C)c2cccnc21` registered an RP-LC retention time of 1060 s.

`CCC(c1cccs1)N1C(=O)[C@H]2CN(S(=O)(=O)Cc3ccccc3)C[C@H]2C1=O` (some centres undefined) registered an RP-LC retention time of 964 s. Molecule `CCCS(=O)(=O)c1nc2ccc(NS(=O)(=O)c3cc(F)cc(F)c3)cc2s1` registered an RP-LC retention time of 952 s. In the case of `CCNC(=O)N1CC(c2nc(-c3ccc(F)cc3)no2)C2(CCOCC2)C1` (centres undefined) it was 751 s; in that of `Cc1cc(C)n(-c2ccc(C(=O)NC3CCCCC3)cn2)n1`, 918 s.

Regarding `CCn1ncc(C(=O)N2CC(n3cc(COc4ccc(F)cc4)nn3)C2)c1C`, the RP-LC retention time came out at 714 s.

On to `CCOc1ccc(Br)cc1C(=O)N1CCNC(=O)C1CC(=O)OC1CCCCC1` (centres undefined), for which the RP-LC retention time came to 876 s.

As for `O=C(NCc1ccc(F)cc1F)C1CCN(c2cncnc2N2CCOCC2)CC1`, the RP-LC retention time is 618 s. Consider `O=C(Cn1nc2c3sc(N4CCCCC4)nc3ncn2c1=O)Nc1ccc(F)c(Cl)c1`, for which the RP-LC retention time is 869 s. `CCn1cc(-c2nc(-c3cccc(Br)c3)no2)c(=O)c2cc(F)c(N3CCOCC3)cc21` displayed an RP-LC retention time of 1050 s. In the case of `CCOCCCNC(=O)Nc1ccc2c(c1)CCN2S(=O)(=O)c1ccccc1` it was 803 s; in that of `Cn1cc2c3c(cccc31)CN(C(=O)c1ccccc1Cl)CC2`, 975 s.

These data come from the METLIN SMRT retention time set (Domingo-Almenara et al. 2019).
